Columns and labels:
Format in all cases: cell-based, human
[1] = test system: hPSC-derived cardiac progenitors and hPSC-CMs; assay: RT-qPCR gene expression in progenitors or cardiomyocytes
Protocol: Frozen cell pellets from progenitors or cardiomyocytes in the 19-9-11 iPS cell line were thawed and RNA isolated using RNeasy spin columns with on-column DNase treatment according to the manufacturer's instructions (Qiagen). 500 ng of isolated RNA was used as template for reverse transcription using Biorad iScript RT supermix according to the manufacturer's instructions. 2.5 ng of derived cDNA was then used as template in qPCR with Taqman® primers bearing FAM-MGB dyes for genes of interest in a 20 μL reaction with Taqman® universal PCR supermix and the manufacturer's recommended cycling conditions (Thermo Fisher Scientific).

hPSC-CMs [2] = assay: Optical action potential measurement (RH237)
Protocol: After hPSC-CM dissociation, day 30 to 60 lactate-purified hPSC-CMs from the 19-9-11 cell line were plated as 80 μL drops on areas of cover glass previously coated in drops of Synthemax® working solution of 80 μL (Corning) in the K20/2 dissociation and replating technique described above. After at least two days in K2 medium, the fast-equilibrating voltage-sensitive dye RH237 at 1 μM was added and live cells imaged in the cover glass in a Leica confocal microscope. Video files of individual cells were taken and filtered with the 50th FIR filter at a cutoff frequency of 128 Hz. The resulting action potentials were analyzed for rise time and voltage velocity in MATLAB. Individual cells were considered as replicates for statistical purposes and came from 4 cell preparations.

hPSC-CMs [3] = assay: Cardiomyocyte yield and purity in GiWi differentiation; conditions: day 30, pI:C alone vs untreated
Protocol: To differentiate cardiomyocytes from hPSCs, the small molecule temporal modulation of the Wnt pathway (GiWi) monolayer protocol was used essentially as previously described (Lian et al., 2012). Human embryonic or induced pluripotent stem cells were dissociated with Versene (Thermo Fisher Scientific) for 6 minutes at 37° C., pipetted up and down 40 times, counted with a hemocytometer, spun down at 100×g for 5 minutes, and resuspended and seeded for differentiation at 1.5 million cells per well in 6 well plates or 0.4 million per well in 12 well plates in mTeSR® on stem-cell verified Matrigel® (WiCell) containing 10 μM Y-27632 ROCK-inhibitor (Tocris). After four days in mTeSR® (WiCell), at which point cells grew to 100 percent confluence, medium was switched to RPMI supplemented with B27 supplement not containing insulin (Thermo Fisher Scientific) and containing 12 μM of the Wnt agonist CHIR99021 (Tocris) for exactly 24 hours. Media was then changed to RPMI supplemented with B27 not containing insulin for exactly 48 hours. Then medium was then switched at day 3 to RPMI supplemented with B27 not containing insulin and containing 5 μM IWP2 (Tocris). At day 5, media was switched to RPMI supplemented with B27 not containing insulin for two days. At day 7 and every three days afterward, medium was replaced with RPMI supplemented with B27 containing insulin (Thermo Fisher Scientific). […]

hPSC-CMs [4] = assay: Cardiomyocyte yield from dissociated and replated progenitors; conditions: primed vs untreated
Protocol: For dissociation of day 5 cells (for destructive analyses or live cell replating experiments), progenitors were dissociated with Versene (Thermo Fisher Scientific) for 10 minutes at 37° C., pipetted up and down 40 times, and then neutralized 1:1 v/v versene solution with “K20” medium (DMEM/F12 with 1×NEAA, 1× Glutamine, 0.1 mM (3-mercaptoethanol, and 20% Knockout Serum Replacer by volume, all Thermo Fisher Scientific). For destructive analyses, pellets were made by centrifugation at 1.1×1000 g for 5 minutes, aspiration of medium supernatant, snap-freezing in liquid nitrogen, and kept at −80° C. for until pellet lysis for DNA, protein, or RNA isolation.
For replating of progenitors and microtissue formation, after neutralization and cell counting, 0.8 million day-5 progenitors per well were spun down at 100×g as above and resuspended and plated in 1 mL K20 with 10 μM Y-27632 ROCK-inhibitor (Tocris) into Synthemax® II-SC coated 12 well plates (Corning). Media was then changed daily in 2 mL of “K2” (same formulation as K20 above, but with just 2% Knockout Serum Replacer), and changed daily. Differentiating hPSC-CMs from replated progenitors in this protocol beat by day 8 to 12.

[5] = test system: hPSC-CM sheets from replated progenitors; assay: Video edge detection / beating analysis of cardiomyocyte sheets
Protocol: For quantification of spatial regularity and graphical presentation of time averaged beating in microtissue from the H9-cTnT-GFP (FIGS. 9A, C) or 19-9-11 (FIG. 9B) cell lines, .avi video files of low-powered (2.5× magnification) fields were recorded at a resolution of 1268×720 and a frame rate of 20/second. These videos were exported into a series of sequential .tiff files using Adobe Premiere, and then analyzed in MATLAB using previously described coding algorithms (Huebsch et al., 2015). Calculations of beat rate (before and after ivrabradine, […] for 2 hours, Sigma) were performed manually in the 19-9-11 cell line and multifocal patterns in untreated progenitor-derived sheets were represented as the average rate of beating for all foci present in a field.

[6] = primed vs untreated cardiac progenitors, qPCR

## polyinosinic-polycytidylic acid [pI:C]
[1]; day 9 cells, treated vs untreated progenitors
  myofilament gene expression: increased expression of all myofilament genes studied
[1]; day 20 pPSC-CM, pI:C vs untreated
  expression of cardiomyocyte maturation genes such as cTnI and αMHC: increased the expression levels
[1]; pI:C treatment vs untreated
  expression of cardiac fibroblast genes (Thy1, MMP1, Collagen 1a, WT1): downregulated
[1]; [6]
  levels of type I HDAC1-3: unchanged to unregulated levels
  levels of type II histone deacetylases (HDAC4-7): universally lower levels
hPSC-CMs [2]; day 30 hPSC-CMs from pI:C-treated vs untreated progenitors
  optical upstroke velocity (rise time): significantly faster
hPSC-CMs [2]; spontaneous action potentials
  APD80: decrease
hPSC-CMs [3]
  yield of cardiomyocytes: more than double the yield
hPSC-CMs [4]; replated at high reseeding density
  increase in yield of cardiomyocytes: 4 fold
hPSC-CMs [4]; replated at lower density
  increase in yield of cardiomyocytes: 6 fold
[5]; primed progenitors
  contraction pattern of cell sheets from dissociated progenitors: highly organized, propagating waves of contraction
[5]; sheets from primed relative to untreated progenitors
  beat angle range: lower range
